{
  "source": "paper PMC11738990",
  "about": "“A small-molecule TNIK inhibitor targets fibrosis in preclinical and clinical models” (Nature Biotechnology, 2024)",
  "key": {"C57BL/6 mice": {"system": "C57BL/6 mice", "test": "LPS-induced acute lung injury model;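 note: bronchoalveolar lavage fluid sampled one day after intratracheal LPS challenge, cytokines measured by ELISA in supernatant, lymphocytes counted on Diff-Quick stained cytospin smears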", "format": "in vivo, mouse", "conditions": "individual animals, Fig 3E-F", "description": "One day before the first experimental day, animals were grouped. All mice were anesthetized with Zoletil–xylazine (50 mpk and 10 mpk, i.p.). At 0 h, mice received LPS at a dose of 50 μl as 50 μg per mouse (groups 2–5, n = 8 per group) or 50 μl saline (group 1, n = 8 per group) by intratracheal administration. […] In the dexamethasone group (group 5), animals were treated with dexamethasone both 2 h before and 4 h after the LPS challenge. Twenty-four hours after the LPS challenge, animals were euthanized, and BALF samples were collected.\nMice were first anesthetized with Zoletil–xylazine (50 mpk and 10 mpk, i.p.). Next, a 1.5–2-cm longitudinal incision was made on the ventral side of the neck to expose the trachea by blunt dissection, and curved forceps were placed underneath the trachea. A 10–12-cm piece of suture was then threaded underneath the trachea using forceps. The ends of the suture were then pulled cranially to ‘stretch’ the trachea toward the surgeon. A 20-G needle was then used to poke a hole in the trachea as close to the larynx as possible. A 22-G blunt stainless steel needle connected to PE tubing was placed in the hole and inserted approximately 5–8 mm into the trachea. The cannula was secured in the trachea by tying the suture around it with an overhand knot. A 1-ml syringe containing 0.4 ml saline was gently pushed forward and backward three times to recover BALF fluid. BALF was transferred into empty tubes and stored on ice. This process was repeated twice with 0.3 ml saline for a total volume of 1 ml.\nTotal cell numbers were counted with a standard hemocytometer by mixing 20 μl BALF with 20 μl trypan blue. Cytospins were prepared by cytocentrifugation using Cytospins at 106g for 5 min, and then smears of BALF cells were stained with Diff-Quick stain. Cell differentiation was performed by counting at least 400 cells using standard hemocytologic criteria to classify them as alveolar macrophages or monocytes, neutrophils, eosinophils or lymphocytes. The rest of the BALF fluid was centrifuged, and supernatants were collected and stored at −80 °C for cytokine, chemokine and total protein analysis.\nFrom the collected BALF, concentrations of cytokines were measured from mice in groups 2–7 killed on day 28. Mouse BALF cytokines and chemokines were measured using the ELISA Analysis Kit (Sinobest Bio). Mouse BALF soluble collagen was measured using the Soluble Collagen kit (Biocolor). Mouse lung hydroxyproline content was measured using the Hydroxyproline Assay Kit (Njjcbio)."}, "healthy subjects [1]": {"system": "healthy subjects", "test": "Phase I New Zealand safety (NCT05154240)", "conditions": "n (%) [E]"}, "[2]": {"system": "primary lung fibroblasts from donors with IPF", "test": "FMT by α-SMA, high-content analysis", "format": "cell-based, human", "conditions": "three donors with IPF; read-out: IC50, TGF-β-mediated α-SMA expression", "experimental": "For the measurement of FMT by α-SMA, on the first day, human lung-derived primary lung fibroblast cells were seeded. After 2 d, the medium of the cells was refreshed. […] On the eighth day (72 h after triggering), cells were fixed with 4% formaldehyde, stained for α-SMA and with DAPI and then imaged and quantified via high-content analysis (HCA) (IN Cell Analyzer 2200, GE Healthcare).\nSegmentation and quantification of α-SMA and FN1 immunoreactivity was carried out with an HCA algorithm, with density × area (D × A) output. Data normalization of raw α-SMA or FN1 (D × A) to percent inhibition values was performed on a plate-to-plate basis.\n[…]\nμp is the average α-SMA or FN1 value of the positive control (TGF-β1 + 1 μM SB525334). μn is the average α-SMA or FN1 value of the vehicle control (TGF-β1 + 0.1% DMSO). Xi is the compound α-SMA or FN1 value. IC50 values for all compounds (if calculable, based on the point of inflection) were calculated with GraphPad Prism using non-linear fit of log (inhibitor) versus response (four parameter).\nDAPI fluorescence was applied for HCA-based quantification of the number of imaged cells on a plate-to-plate basis.\nPercent remaining cells = (Xi/μn) × 100%\nμn is the average number of nuclei of the vehicle control (TGF-β1 + 0.1% DMSO). Xi is the compound number of nuclei."}, "Sprague Dawley rats": {"system": "Sprague Dawley rats", "test": "Bleomycin-induced skin scarring model", "format": "in vivo, rat", "conditions": "0.05% topical", "experimental": "Animals were anesthetized using isoflurane. Using a 1-ml syringe containing a 27-gauge needle, 100 µl bleomycin (1 mg ml^−1 in PBS) solution was injected subcutaneously into two sites on the shaved dorsal regions, QD for 4 weeks. Rats in the naive control group were injected daily with an equivalent volume of sterile PBS. […] After 4 weeks of treatment, animals were killed with CO2, and skin was collected.\nHydroxyproline and collagen concentrations were normalized to total protein content using the Bradford method."}, "healthy subjects [3]": {"system": "healthy subjects", "conditions": "in vivo"}, "[4]": {"conditions": "G4 INS018_055 3mpk BID, 3 mg/kg"}, "[5]": {"conditions": "G5 INS018_055 10mpk BID, 10 mg/kg"}, "[6]": {"conditions": "G7 INS018_055 20mpk QD, 20 mg/kg"}},
  "note": "Several values for one entry are separate records, joined by “and”; a condition that tells them apart may be missing. Equal values may be shown once.",
  "data": [
    {"smiles": "CC(C)n1cnc(-c2ccc(F)cc2)c1-c1nc(C(=O)Nc2ccc(N3CCN(C)CC3)cc2)c[nH]1", "note": "[INS018_055, 2-[4-(4-fluorophenyl)-1-(prop-2-yl)imidazol-5-yl]-N-[4-(4-methylhexahydropyrazin-1-yl)phenyl]-1H-imidazole-4-carboxamide]", "values": [
      {"measurement": "IL-1β", "setting": "C57BL/6 mice; [4]", "result": "76.808 and 90.9173 and 84.4347 and 88.6293 and 81.7653 and 68.4187 and 91.2987 and 66.512"},
      {"measurement": "IL-4", "setting": "C57BL/6 mice; [4]", "result": "44.4779 and 48.864 and 44.3266 and 42.2092 and 40.6967 and 44.6291 and 41.1504 and 43.4191"},
      {"measurement": "IL-6", "setting": "C57BL/6 mice; [4]", "result": "23.78 and 22.3 and 25.4 and 24.37 and 27.02 and 28.05 and 25.54 and 22.45"},
      {"measurement": "IL-7", "setting": "C57BL/6 mice; [4]", "result": "29.29 and 30.58 and 25.61 and 25.43 and 23.95 and 22.3 and 26.16 and 33.16"},
      {"measurement": "Lymphocytes", "setting": "C57BL/6 mice; [4]", "result": "9000 and 7000 and 5750 and 18000 and 15600 and 4800 and 11200 and 5600"},
      {"measurement": "TNF-alpha", "setting": "C57BL/6 mice; [4]", "result": "286.33 and 268.83 and 288.52 and 360.7 and 260.08 and 336.64 and 303.83 and 209.77"},
      {"measurement": "IL-1β", "setting": "C57BL/6 mice; [5]", "result": "66.512 and 53.5467 and 55.0721 and 69.944 and 59.2667 and 64.2241 and 56.5974"},
      {"measurement": "IL-4", "setting": "C57BL/6 mice; [5]", "result": "47.5028 and 53.8551 and 49.9227 and 42.8141 and 45.5366 and 45.0828 and 51.2839 and 46.8978"},
      {"measurement": "IL-6", "setting": "C57BL/6 mice; [5]", "result": "20.39 and 23.04 and 25.84 and 22.45 and 25.99 and 18.47 and 19.8"},
      {"measurement": "IL-7", "setting": "C57BL/6 mice; [5]", "result": "19.9 and 17.14 and 19.72 and 14.2 and 24.69 and 21.38 and 23.4 and 26.72"},
      {"measurement": "Lymphocytes", "setting": "C57BL/6 mice; [5]", "result": "19800 and 10350 and 7200 and 6000 and 5400 and 8200 and 6450"},
      {"measurement": "TNF-alpha", "setting": "C57BL/6 mice; [5]", "result": "238.21 and 262.27 and 306.02 and 187.89 and 181.33 and 336.64 and 196.64 and 198.83"},
      {"measurement": "IL-1β", "setting": "C57BL/6 mice; G6 INS018_055 6mpk QD, 6 mg/kg", "result": "71.4694 and 80.24 and 88.248 and 64.6054 and 63.0801 and 87.104 and 80.6214"},
      {"measurement": "IL-4", "setting": "C57BL/6 mice; G6 INS018_055 6mpk QD, 6 mg/kg", "result": "42.3604 and 46.7466 and 42.8141 and 44.4779 and 47.9565 and 44.7804 and 48.7128 and 38.7305"},
      {"measurement": "IL-6", "setting": "C57BL/6 mice; G6 INS018_055 6mpk QD, 6 mg/kg", "result": "27.31 and 23.19 and 22.45 and 27.76 and 33.8 and 25.99 and 28.93 and 26.87"},
      {"measurement": "IL-7", "setting": "C57BL/6 mice; G6 INS018_055 6mpk QD, 6 mg/kg", "result": "27.82 and 30.4 and 27.08 and 33.16 and 21.19 and 31.69 and 25.8 and 28.37"},
      {"measurement": "Lymphocytes", "setting": "C57BL/6 mice; G6 INS018_055 6mpk QD, 6 mg/kg", "result": "5200 and 1650 and 3850 and 2700 and 5250 and 5500 and 2600"},
      {"measurement": "TNF-alpha", "setting": "C57BL/6 mice; G6 INS018_055 6mpk QD, 6 mg/kg", "result": "290.7 and 236.02 and 376.01 and 218.52 and 330.08 and 244.77 and 391.33 and 310.39"},
      {"measurement": "IL-1β", "setting": "C57BL/6 mice; [6]", "result": "62.6987 and 77.952 and 78.7147 and 61.5547 and 74.52 and 71.8507 and 60.7921 and 57.3601"},
      {"measurement": "IL-4", "setting": "C57BL/6 mice; [6]", "result": "48.1078 and 43.2679 and 48.4103 and 52.3427 and 52.0402 and 44.6291 and 51.7377 and 50.074"},
      {"measurement": "IL-6", "setting": "C57BL/6 mice; [6]", "result": "22.74 and 25.84 and 21.71 and 18.17 and 26.58 and 23.63 and 22.15 and 25.69"},
      {"measurement": "IL-7", "setting": "C57BL/6 mice; [6]", "result": "16.59 and 21.38 and 22.67 and 18.98 and 27.45 and 24.14 and 31.32 and 16.04"},
      {"measurement": "Lymphocytes", "setting": "C57BL/6 mice; [6]", "result": "6500 and 7200 and 8250 and 11600 and 6900 and 1650 and 6100 and 2700"},
      {"measurement": "TNF-alpha", "setting": "C57BL/6 mice; [6]", "result": "244.77 and 214.14 and 279.77 and 218.52 and 163.83 and 341.01 and 179.15 and 292.89"},
      {"measurement": "Any Death", "setting": "healthy subjects [1]; MAD any dose N=18", "result": "0 [0]"},
      {"measurement": "Any Death", "setting": "healthy subjects [1]; SAD any dose N=30", "result": "0 [0]"},
      {"measurement": "IC50", "setting": "[2]", "result": "0.05 µM and 0.079 µM and 0.063 µM"},
      {"measurement": "Hydroxyproline in skin", "setting": "Sprague Dawley rats", "result": "1036.36 and 1122.01 and 1193.18 and 833.714 and 660.98"},
      {"measurement": "Total collagen in skin", "setting": "Sprague Dawley rats", "result": "114.74 and 120.73 and 157.27 and 80.17 and 90.17"},
      {"measurement": "Abdominal pain", "setting": "healthy subjects [3]", "result": "1 (5.6) [1]"},
      {"measurement": "Alanine aminotransferase increased", "setting": "healthy subjects [3]", "result": "1 (5.6) [1]"},
      {"measurement": "Alopecia", "setting": "healthy subjects [3]", "result": "0 [0]"},
      {"measurement": "Any SAE", "setting": "healthy subjects [3]", "result": "0 [0]"},
      {"measurement": "Any Severe TEAE", "setting": "healthy subjects [3]", "result": "0 [0]"},
      {"measurement": "Any Treatment-Related Moderate TEAE", "setting": "healthy subjects [3]", "result": "0 [0]"},
      {"measurement": "Any Treatment-Related SAE", "setting": "healthy subjects [3]", "result": "0 [0]"},
      {"measurement": "Any Treatment-Related Severe TEAE", "setting": "healthy subjects [3]", "result": "0 [0]"},
      {"measurement": "Aphthous ulcer", "setting": "healthy subjects [3]", "result": "1 (5.6) [1]"},
      {"measurement": "Aspartate aminotransferase increased", "setting": "healthy subjects [3]", "result": "1 (5.6) [1]"},
      {"measurement": "Back pain", "setting": "healthy subjects [3]", "result": "1 (5.6) [1]"},
      {"measurement": "Blood creatine phosphokinase increased", "setting": "healthy subjects [3]", "result": "1 (5.6) [1]"},
      {"measurement": "Catheter site bruise", "setting": "healthy subjects [3]", "result": "1 (5.6) [1]"},
      {"measurement": "Catheter site inflammation", "setting": "healthy subjects [3]", "result": "1 (5.6) [1]"},
      {"measurement": "Catheter site pain", "setting": "healthy subjects [3]", "result": "0 [0]"},
      {"measurement": "Catheter site swelling", "setting": "healthy subjects [3]", "result": "1 (5.6) [1]"},
      {"measurement": "Constipation", "setting": "healthy subjects [3]", "result": "1 (3.3) [1]"},
      {"measurement": "Cough", "setting": "healthy subjects [3]", "result": "1 (3.3) [1]"},
      {"measurement": "Diarrhoea", "setting": "healthy subjects [3]", "result": "1 (5.6) [1]"},
      {"measurement": "Gastrointestinal disorder", "setting": "healthy subjects [3]", "result": "0 [0]"},
      {"measurement": "Immune system disorders", "setting": "healthy subjects [3]", "result": "1 (5.6) [1]"}
    ]}
  ]
}
